What was measured:
Type in all cases: physicochemical
[1] = Thermal and moisture stability of crystal forms (HPLC and XRPD after storage in a stability test chamber); conditions: for degradation: under the test conditions of Table 1; for crystal form change (overlay of XRPD forms): under the test conditions, FIGS. 15 and 16
Procedure: (§1) The crystal form of the samples was analyzed using a Bruker D8 ADVANCE or Bruker D8 Focus X-ray powder diffractometer. The samples were scanned with the 2θ scanning angle of 3° to 42°, the scanning step of 0.02°, and the scanning time of 0.05 s or 0.1 s or 0.2 s per step. The voltage and current for fluorescent tubes were 40 kV and 40 mA, respectively. During sample preparation, an appropriate amount of samples were placed on a sample tray and flattened with a glass sheet or other tools to ensure a smooth and flat surface.
Solubility and stability tests were carried out using Agilient 1260 HPLC under the following conditions: column: ZORBAX Eclipse Plus Cl8 4.6* 100 mm 3.5-Micron; flow rate: 1 mL/min; column temperature: 35 °C; injection volume: 10 µL; mobile phases: mobile phase A: 0.02 mol/L potassium dihydrogen phosphate, and mobile phase B: ACN; running time: 40 min; detector: UV at 210 nm; diluent: ACN; and injection concentration: 0.2 mg/mL.
A certain amount of samples of the crystal forms A (prepared according to the preparation method 1 of Example 1) and B (prepared according to the method of Example 2) of the compound of formula (I) were placed into a stability test chamber, and taken out for HPLC and XRPD testing after a certain period of time.
Test conditions were as follows: under open conditions at 25 °C with 60% RH (25 °C/60% RH) or at 40 °C with 75% RH (40 °C/75% RH), HPLC and XRPD was characterized after one week, two weeks, 1 month and 2 months respectively; and HPLC and XRPD were characterized under closed conditions at 80 °C for one day and under closed conditions with lighting for 10 days, respectively. Table 1: Results of Stability of Crystal Forms A and B

[2] = Stability of crystal forms in aqueous medium at 37 °C (XRPD of solids from 5 mg/mL suspension); conditions: for XRPD: 37 °C; for crystal form transformation: 24 hours
Procedure: as §1
Table 2: Results of Stability of Crystal Forms A and B in Aqueous Medium at 37 °C

[3] = Solid dispersion by hot-melt extrusion with Povidone K30: content of related substance D1 and of active ingredient; conditions: for Content of related substance D1 in starting material: before hot-melt extrusion, Not detected: detected content < 0.0045%; for Content of active pharmaceutical ingredient in sample / Content of related substance D1 in sample: solid dispersion, Povidone K30 1:3, hot-melt extrusion up to 200 °C
Excerpt: Under the same hot-melt extrusion conditions, the contents of related substance D1 in the solid dispersions prepared from the crystal forms A (prepared according to the preparation method 1 of Example 1) and B (prepared according to the preparation method of Example 2) were investigated, respectively. The structure of the related substance D1 is represented by formula (II). [drawing 4]
Preparation of solid dispersion by hot-melt extrusion: the active pharmaceutical ingredient of crystal form A (prepared according to the preparation method 1 of Example 1) or B (prepared according to the method of Example 2) and Povidone K30 were weighed respectively and then evenly mixed at a ratio of 1:3; after the temperature of each temperature zone for hot-melt […] reached 130 °C, 150 °C, 180 °C, 195 °C, 200 °C, 200 °C, 200 °C, and 200 °C and balanced for 15 min, the mixture was added to the hopper of an extruder; and the resulting solids were collected and left to cool at room temperature, and then tested for the content of the related substance D1, respectively. Table 3: Results of Prepared Samples of Crystal Forms A and B
Not detected: the detected content of related substance D1 was < 0.0045%.

[4] = Hygroscopic weight gain test
Procedure: On Days 0, 20 and 25, the samples were set out respectively, with the temperature and humidity conditions controlled to 25 ± 2 °C/75 ± 5% RH and 25 ± 2 °C/90 ± 5% RH. All samples were sampled and weighed on Day 30 to calculate the hygroscopic weight gain (%).

[5] = Impact of drying conditions on crystal form stability (XRPD); conditions: wet samples dried at 40 °C or 60 °C under vacuum, or under nitrogen at room temperature or 40 °C; 0 h to 48 h
Procedure: as §1

[6] = FeSSIF, 24 h (first FeSSIF line)
[7] = FeSSIF, 24 h (second FeSSIF line)

Structure (SMILES): Cn1cc2cc(C(F)(F)c3nnc4ccc(-c5cnn(C6CC6)c5)nn34)c(F)cc2n1 [Crystal form A]
- Degradation (%) ([1]; 25 °C/60% RH, open, 1 month): 0%
- Purity (%) ([1]; 25 °C/60% RH, open, 1 month): 99.98%
- XRPD ([1]; 25 °C/60% RH, open, 1 month): Unchanged
- Degradation (%) ([1]; 25 °C/60% RH, open, 1 week): 0%
- Purity (%) ([1]; 25 °C/60% RH, open, 1 week): 99.98%
- XRPD ([1]; 25 °C/60% RH, open, 1 week): Unchanged
- Degradation (%) ([1]; 25 °C/60% RH, open, 2 months): 0%
- Purity (%) ([1]; 25 °C/60% RH, open, 2 months): 99.98%
- XRPD ([1]; 25 °C/60% RH, open, 2 months): Unchanged
- Degradation (%) ([1]; 25 °C/60% RH, open, 2 weeks): 0%
- Purity (%) ([1]; 25 °C/60% RH, open, 2 weeks): 99.98%
- XRPD ([1]; 25 °C/60% RH, open, 2 weeks): Unchanged
- Degradation (%) ([1]; 40 °C/75% RH, open, 1 month): 0%
- Purity (%) ([1]; 40 °C/75% RH, open, 1 month): 99.98%
- XRPD ([1]; 40 °C/75% RH, open, 1 month): Unchanged
- Degradation (%) ([1]; 40 °C/75% RH, open, 1 week): 0.01%
- Purity (%) ([1]; 40 °C/75% RH, open, 1 week): 99.97%
- XRPD ([1]; 40 °C/75% RH, open, 1 week): Unchanged
- Degradation (%) ([1]; 40 °C/75% RH, open, 2 months): 0.01%
- Purity (%) ([1]; 40 °C/75% RH, open, 2 months): 99.97%
- XRPD ([1]; 40 °C/75% RH, open, 2 months): Unchanged
- Degradation (%) ([1]; 40 °C/75% RH, open, 2 weeks): 0%
- Purity (%) ([1]; 40 °C/75% RH, open, 2 weeks): 99.98%
- XRPD ([1]; 40 °C/75% RH, open, 2 weeks): Unchanged
- Degradation (%) ([1]; 80 °C, closed, 1 d): 0%
- Purity (%) ([1]; 80 °C, closed, 1 d): 99.98%
- XRPD ([1]; 80 °C, closed, 1 d): Unchanged
- Degradation (%) ([1]; Lighting control, 10 d): 0%
- Purity (%) ([1]; Lighting control, 10 d): 99.98%
- XRPD ([1]; Lighting control, 10 d): Unchanged
- Degradation (%) ([1]; Lighting, closed, 10 d): 0%
- Purity (%) ([1]; Lighting, closed, 10 d): 99.98%
- XRPD ([1]; Lighting, closed, 10 d): Unchanged
- Purity (%) ([1]; Start): 99.98%
- degradation [1]: almost no degradation
- crystal form change (overlay of XRPD forms) [1]: have not changed
- XRPD ([2]; FaSSIF, 24 h): Unchanged
- XRPD [2, 6]: Unchanged
- XRPD [2, 7]: Unchanged
- XRPD ([2]; Water, 24 h): Crystal form B
- crystal form transformation ([2]; buffers of different pHs and water): transformed to the crystal form B
- XRPD ([2]; pH 1.2 buffer, 24 h): Crystal form B
- XRPD ([2]; pH 3.0 buffer, 24 h): Crystal form B
- XRPD ([2]; pH 4.5 buffer, 24 h): Crystal form B
- XRPD ([2]; pH 6.8 buffer, 24 h): Crystal form B
- XRPD ([2]; pH 7.4 buffer, 24 h): Crystal form B
- crystal form transformation ([2]; simulated biological media): without crystal form transformation
- Content of related substance D1 in starting material [3]: Not detected
- Content of active pharmaceutical ingredient in sample [3]: 101.6%
- Content of related substance D1 in sample [3]: 0.08%

Structure (SMILES): Cn1cc2cc(C(F)(F)c3nnc4ccc(-c5cnn(C6CC6)c5)nn34)c(F)cc2n1 [Crystal form B]
- Degradation (%) ([1]; 25 °C/60% RH, open, 1 month): 0%
- Purity (%) ([1]; 25 °C/60% RH, open, 1 month): 99.98%
- XRPD ([1]; 25 °C/60% RH, open, 1 month): Unchanged
- Degradation (%) ([1]; 25 °C/60% RH, open, 1 week): 0%
- Purity (%) ([1]; 25 °C/60% RH, open, 1 week): 99.98%
- XRPD ([1]; 25 °C/60% RH, open, 1 week): Unchanged
- Degradation (%) ([1]; 25 °C/60% RH, open, 2 months): 0.01%
- Purity (%) ([1]; 25 °C/60% RH, open, 2 months): 99.97%
- XRPD ([1]; 25 °C/60% RH, open, 2 months): Unchanged
- Degradation (%) ([1]; 25 °C/60% RH, open, 2 weeks): 0%
- Purity (%) ([1]; 25 °C/60% RH, open, 2 weeks): 99.98%
- XRPD ([1]; 25 °C/60% RH, open, 2 weeks): Unchanged
- Degradation (%) ([1]; 40 °C/75% RH, open, 1 month): 0%
- Purity (%) ([1]; 40 °C/75% RH, open, 1 month): 99.98%
- XRPD ([1]; 40 °C/75% RH, open, 1 month): Unchanged
- Degradation (%) ([1]; 40 °C/75% RH, open, 1 week): 0.01%
- Purity (%) ([1]; 40 °C/75% RH, open, 1 week): 99.97%
- XRPD ([1]; 40 °C/75% RH, open, 1 week): Unchanged
- Degradation (%) ([1]; 40 °C/75% RH, open, 2 months): 0.02%
- Purity (%) ([1]; 40 °C/75% RH, open, 2 months): 99.96%
- XRPD ([1]; 40 °C/75% RH, open, 2 months): Unchanged
- Degradation (%) ([1]; 40 °C/75% RH, open, 2 weeks): -0.01%
- Purity (%) ([1]; 40 °C/75% RH, open, 2 weeks): 99.99%
- XRPD ([1]; 40 °C/75% RH, open, 2 weeks): Unchanged
- Degradation (%) ([1]; 80 °C, closed, 1 d): 0.01%
- Purity (%) ([1]; 80 °C, closed, 1 d): 99.97%
- XRPD ([1]; 80 °C, closed, 1 d): Unchanged
- Degradation (%) ([1]; Lighting control, 10 d): 0%
- Purity (%) ([1]; Lighting control, 10 d): 99.98%
- XRPD ([1]; Lighting control, 10 d): Unchanged
- Degradation (%) ([1]; Lighting, closed, 10 d): 0%
- Purity (%) ([1]; Lighting, closed, 10 d): 99.98%
- XRPD ([1]; Lighting, closed, 10 d): Unchanged
- Purity (%) ([1]; Start): 99.98%
- degradation [1]: almost no degradation
- crystal form change (overlay of XRPD forms) [1]: have not changed
- XRPD ([2]; FaSSIF, 24 h): Unchanged
- XRPD [2, 6]: Unchanged
- XRPD [2, 7]: Unchanged
- XRPD ([2]; Water, 24 h): Unchanged
- crystal form change ([2]; all media): no change
- XRPD ([2]; pH 1.2 buffer, 24 h): Unchanged
- XRPD ([2]; pH 3.0 buffer, 24 h): Unchanged
- XRPD ([2]; pH 4.5 buffer, 24 h): Unchanged
- XRPD ([2]; pH 6.8 buffer, 24 h): Unchanged
- XRPD ([2]; pH 7.4 buffer, 24 h): Unchanged
- Content of related substance D1 in starting material [3]: Not detected
- Content of active pharmaceutical ingredient in sample [3]: 101.8%
- Content of related substance D1 in sample [3]: 0.05%
- Hygroscopic weight gain (%) ([4]; 25 + 2°C/90 + 5% RH, 5 days): 1%
- Hygroscopic weight gain (%) ([4]; 25 + 2°C/90 + 5% RH, 10 days): 1%
- Hygroscopic weight gain (%) ([4]; 25 + 2°C/90 + 5% RH, 30 days): 1%
- Hygroscopic weight gain (%) ([4]; 25 ± 2°C/75 + 5% RH, 5 days): 1%
- Hygroscopic weight gain (%) ([4]; 25 ± 2°C/75 + 5% RH, 10 days): 1%
- Hygroscopic weight gain (%) ([4]; 25 ± 2°C/75 + 5% RH, 30 days): 1%
- hygroscopic weight gain ([4]; high humidity conditions for 5 days, 10 days and 30 days (text summary; less than 2%, slight hygroscopicity)): approximately 1%
- crystal form during drying (XRPD) [5]: no other crystal forms appear during drying

— patent EP4741394A1, “CRYSTAL FORM OF [1,2,4]TRIAZOLO[4,3-B]PYRIDAZINE COMPOUND, AND PREPARATION METHOD THEREFOR AND USE THEREOF” (Beijing Pearl Biotechnology Limited Liability Company, priority 2023, dated 2025)
